From ChEMBL document CHEMBL1201862, “PubChem BioAssay data set” (2004)
Active and inactive are the calls of the source.

Columns and labels:
[1] = microbe, parasite or virus in culture; assay type: functional; settings: Mycobacterium tuberculosis
[2] = viability of HCT116 lacking mutant beta-catenin – cell-based, human colon tumor, dose response (AID 1045); assay type: functional;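 further: HCT116 colon tumor cells with beta catenin knocked out; cells exposed to compound for 60 hours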
[3] = viability of PTEN-deleted HCT116 cells – cell-based, HCT116 PTEN knockout, dose response (AID 1047); assay type: functional;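 further: HCT116 colon tumor cells with PTEN knocked out; cells exposed to compound for 60 hours before readout; potency for loss of cell viability measured by luminescence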
Vero = assay: cells; assay type: functional; settings: Chlorocebus sabaeus
[4] = molecular target: Glucose-6-phosphate 1-dehydrogenase (Homo sapiens, UniProt P11413); assay: inhibition of Homo sapiens G6PD, dose series – biochemical, fluorescence, selectivity assay for P. falciparum G6PD inhibitor project, dose response (AID 504792); assay type: functional
Sequence of Glucose-6-phosphate 1-dehydrogenase (P11413 whole entry): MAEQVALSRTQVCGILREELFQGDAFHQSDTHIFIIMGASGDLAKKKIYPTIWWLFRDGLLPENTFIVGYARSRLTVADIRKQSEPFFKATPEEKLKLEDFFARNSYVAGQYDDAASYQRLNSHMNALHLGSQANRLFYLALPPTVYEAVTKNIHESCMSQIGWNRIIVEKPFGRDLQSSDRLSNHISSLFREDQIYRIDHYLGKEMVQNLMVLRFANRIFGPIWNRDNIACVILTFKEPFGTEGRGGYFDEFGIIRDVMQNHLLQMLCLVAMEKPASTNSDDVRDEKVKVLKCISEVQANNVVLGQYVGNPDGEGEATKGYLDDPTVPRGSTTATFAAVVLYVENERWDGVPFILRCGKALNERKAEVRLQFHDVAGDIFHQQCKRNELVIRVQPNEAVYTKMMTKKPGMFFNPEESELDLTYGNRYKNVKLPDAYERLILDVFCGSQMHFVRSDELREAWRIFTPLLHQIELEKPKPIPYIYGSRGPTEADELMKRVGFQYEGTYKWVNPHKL

[5] = viability of uninfected HEp-2 cells – cell-based, HTS, cytotoxicity control for RSV inhibitor project, dose response (AID 2410); assay type: functional; settings: human respiratory syncytial virus
Cytochrome P450 3A4 = Cytochrome P450 3A4 (Homo sapiens, UniProt P08684); settings: Potency;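 further: confirmatory qHTS run detecting inhibitors and substrates of CYP3A4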
Sequence of Cytochrome P450 3A4 (P08684 whole entry): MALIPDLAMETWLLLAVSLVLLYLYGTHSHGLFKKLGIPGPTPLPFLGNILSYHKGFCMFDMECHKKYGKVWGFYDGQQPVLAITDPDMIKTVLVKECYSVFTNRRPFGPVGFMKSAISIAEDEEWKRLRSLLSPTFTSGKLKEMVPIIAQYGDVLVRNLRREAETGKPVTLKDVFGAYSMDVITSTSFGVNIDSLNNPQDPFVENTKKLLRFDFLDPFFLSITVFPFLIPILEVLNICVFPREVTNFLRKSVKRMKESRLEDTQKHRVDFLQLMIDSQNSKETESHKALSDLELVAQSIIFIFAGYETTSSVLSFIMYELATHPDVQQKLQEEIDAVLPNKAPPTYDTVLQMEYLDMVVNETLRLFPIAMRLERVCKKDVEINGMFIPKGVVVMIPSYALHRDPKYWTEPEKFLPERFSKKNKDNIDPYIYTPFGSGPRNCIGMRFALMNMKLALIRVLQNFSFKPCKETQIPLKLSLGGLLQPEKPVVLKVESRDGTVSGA

[6] = molecular target: T1, DNA repair protein RAD52 homolog (Homo sapiens, UniProt P43351); assay type: functional, biochemical
T1 sequence (P43351 whole entry): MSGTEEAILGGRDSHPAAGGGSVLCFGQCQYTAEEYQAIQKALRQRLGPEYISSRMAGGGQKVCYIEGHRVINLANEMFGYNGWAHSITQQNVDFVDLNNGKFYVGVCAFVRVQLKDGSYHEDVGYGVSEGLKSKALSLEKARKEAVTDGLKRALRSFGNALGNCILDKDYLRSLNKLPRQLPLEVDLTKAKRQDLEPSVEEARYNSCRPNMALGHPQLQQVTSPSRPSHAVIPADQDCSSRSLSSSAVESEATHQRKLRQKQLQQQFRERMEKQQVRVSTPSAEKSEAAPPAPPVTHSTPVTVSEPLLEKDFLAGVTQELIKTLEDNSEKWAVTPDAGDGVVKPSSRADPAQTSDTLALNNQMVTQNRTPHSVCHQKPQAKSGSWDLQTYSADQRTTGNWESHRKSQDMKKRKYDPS

[7] = molecular target: T2, Rac GTPase-activating protein 1 (Homo sapiens, UniProt Q9H0H5); assay: blockers of MgcRacGAP-driven Rac1 GTP hydrolysis – biochemical, ADP Hunter fluorescence, primary and confirmatory, confirmation (AID 624330); assay type: functional
T2 sequence (Q9H0H5 whole entry): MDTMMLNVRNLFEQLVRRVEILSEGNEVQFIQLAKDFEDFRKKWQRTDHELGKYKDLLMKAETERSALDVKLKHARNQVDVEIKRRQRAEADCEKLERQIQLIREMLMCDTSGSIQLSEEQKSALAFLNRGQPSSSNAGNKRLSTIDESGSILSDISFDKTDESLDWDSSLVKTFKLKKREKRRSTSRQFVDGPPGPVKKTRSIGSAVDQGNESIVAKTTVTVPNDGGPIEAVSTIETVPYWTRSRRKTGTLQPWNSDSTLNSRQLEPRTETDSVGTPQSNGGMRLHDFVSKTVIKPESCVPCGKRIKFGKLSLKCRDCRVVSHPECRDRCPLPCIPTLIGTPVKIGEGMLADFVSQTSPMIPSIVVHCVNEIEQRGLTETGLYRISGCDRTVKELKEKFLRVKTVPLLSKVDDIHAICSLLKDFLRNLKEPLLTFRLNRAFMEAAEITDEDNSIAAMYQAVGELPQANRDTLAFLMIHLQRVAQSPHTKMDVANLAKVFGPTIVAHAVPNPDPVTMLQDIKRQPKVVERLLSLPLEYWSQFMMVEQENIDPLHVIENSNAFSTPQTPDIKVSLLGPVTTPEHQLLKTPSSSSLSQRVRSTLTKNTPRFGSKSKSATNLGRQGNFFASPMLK

[8] = molecular target: Eukaryotic translation initiation factor 4E (Mus musculus, UniProt P63073); assay: blockers of eIF4G binding by eIF4E – biochemical, TR-FRET, dose response (AID 855); assay type: functional;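 further: potency for disrupting eIF4E binding to eIF4GI seen as loss of FRET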
Sequence of Eukaryotic translation initiation factor 4E (P63073 whole entry, the tested form may be a part): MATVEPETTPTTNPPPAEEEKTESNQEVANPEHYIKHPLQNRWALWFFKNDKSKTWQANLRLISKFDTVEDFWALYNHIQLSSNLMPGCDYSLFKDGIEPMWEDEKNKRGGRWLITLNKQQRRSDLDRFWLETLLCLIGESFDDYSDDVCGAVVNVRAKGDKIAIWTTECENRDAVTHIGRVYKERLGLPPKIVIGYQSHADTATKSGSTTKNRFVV

[9] = molecular target: T3, RNA-binding protein pos-1 (Caenorhabditis elegans, UniProt G5EF15); assay: disruptors of C. elegans POS-1 RNA interaction – biochemical, fluorescence polarization, dose response (AID 1964);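 further: purified POS-1 fused to maltose binding protein made in E. coli; potency of compounds blocking POS-1 binding to fluorescent RNA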
T3 sequence (G5EF15 whole entry): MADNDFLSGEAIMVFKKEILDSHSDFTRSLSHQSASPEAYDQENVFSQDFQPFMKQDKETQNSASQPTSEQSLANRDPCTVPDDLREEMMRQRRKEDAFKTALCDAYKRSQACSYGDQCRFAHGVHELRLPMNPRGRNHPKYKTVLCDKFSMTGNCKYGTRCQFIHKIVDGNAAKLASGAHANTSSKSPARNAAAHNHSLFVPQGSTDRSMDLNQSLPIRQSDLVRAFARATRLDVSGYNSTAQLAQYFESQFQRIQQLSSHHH

Large T antigen = Large T antigen (Simian virus 40, UniProt P03070); assay type: functional, Betapolyomavirus macacae;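 further: Confirmatory-stage PubChem screen for compounds that inhibit SV40 T antigen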
Sequence of Large T antigen (P03070 whole entry): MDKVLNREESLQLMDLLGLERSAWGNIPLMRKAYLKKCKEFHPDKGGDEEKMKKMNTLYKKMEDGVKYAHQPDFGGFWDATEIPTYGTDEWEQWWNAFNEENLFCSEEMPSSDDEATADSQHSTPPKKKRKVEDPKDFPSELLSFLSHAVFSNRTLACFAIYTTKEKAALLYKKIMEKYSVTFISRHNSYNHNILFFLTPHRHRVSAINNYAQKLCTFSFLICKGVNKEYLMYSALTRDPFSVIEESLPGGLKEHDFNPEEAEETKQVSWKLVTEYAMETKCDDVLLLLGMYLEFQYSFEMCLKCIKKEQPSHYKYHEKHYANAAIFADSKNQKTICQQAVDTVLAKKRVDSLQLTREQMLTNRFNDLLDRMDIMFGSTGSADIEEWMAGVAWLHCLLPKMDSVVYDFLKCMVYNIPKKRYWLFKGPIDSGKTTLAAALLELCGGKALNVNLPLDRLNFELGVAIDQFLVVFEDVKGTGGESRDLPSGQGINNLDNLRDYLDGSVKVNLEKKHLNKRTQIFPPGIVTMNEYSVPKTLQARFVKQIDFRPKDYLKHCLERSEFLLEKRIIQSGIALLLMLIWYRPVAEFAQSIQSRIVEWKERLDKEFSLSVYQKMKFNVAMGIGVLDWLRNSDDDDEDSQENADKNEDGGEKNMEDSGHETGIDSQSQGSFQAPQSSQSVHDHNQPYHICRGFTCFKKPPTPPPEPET

[10] = molecular target: T4, Zinc finger protein mex-5 (Caenorhabditis elegans, UniProt Q9XUB2); assay: potency of MEX-5 RNA-binding blockers – biochemical, C. elegans, fluorescence polarization, dose response (AID 1960)
T4 sequence (Q9XUB2 whole entry): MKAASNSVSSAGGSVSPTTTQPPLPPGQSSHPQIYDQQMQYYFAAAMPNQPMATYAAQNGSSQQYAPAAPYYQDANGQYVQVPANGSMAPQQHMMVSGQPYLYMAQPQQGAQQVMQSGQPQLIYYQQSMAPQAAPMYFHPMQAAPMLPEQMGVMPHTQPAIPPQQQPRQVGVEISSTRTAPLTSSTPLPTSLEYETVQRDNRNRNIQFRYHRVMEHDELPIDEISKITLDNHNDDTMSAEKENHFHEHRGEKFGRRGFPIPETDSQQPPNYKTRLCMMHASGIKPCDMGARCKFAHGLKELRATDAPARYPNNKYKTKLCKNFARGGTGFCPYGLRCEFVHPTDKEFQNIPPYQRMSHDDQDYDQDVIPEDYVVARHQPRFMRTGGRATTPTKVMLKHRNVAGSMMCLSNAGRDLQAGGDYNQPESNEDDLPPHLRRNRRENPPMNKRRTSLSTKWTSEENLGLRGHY

[11] = molecular target: T5, Short transient receptor potential channel 4 (Mus musculus, UniProt Q9QUQ5); assay: block of DAMGO-driven TRPC4 calcium entry – cell-based, HEK293 TRPC4/mu-opioid, Fluo-4 calcium, dose response (AID 434942); assay type: functional;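 further: potency of inhibitors blocking the TRPC4 calcium response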
T5 sequence (Q9QUQ5 whole entry): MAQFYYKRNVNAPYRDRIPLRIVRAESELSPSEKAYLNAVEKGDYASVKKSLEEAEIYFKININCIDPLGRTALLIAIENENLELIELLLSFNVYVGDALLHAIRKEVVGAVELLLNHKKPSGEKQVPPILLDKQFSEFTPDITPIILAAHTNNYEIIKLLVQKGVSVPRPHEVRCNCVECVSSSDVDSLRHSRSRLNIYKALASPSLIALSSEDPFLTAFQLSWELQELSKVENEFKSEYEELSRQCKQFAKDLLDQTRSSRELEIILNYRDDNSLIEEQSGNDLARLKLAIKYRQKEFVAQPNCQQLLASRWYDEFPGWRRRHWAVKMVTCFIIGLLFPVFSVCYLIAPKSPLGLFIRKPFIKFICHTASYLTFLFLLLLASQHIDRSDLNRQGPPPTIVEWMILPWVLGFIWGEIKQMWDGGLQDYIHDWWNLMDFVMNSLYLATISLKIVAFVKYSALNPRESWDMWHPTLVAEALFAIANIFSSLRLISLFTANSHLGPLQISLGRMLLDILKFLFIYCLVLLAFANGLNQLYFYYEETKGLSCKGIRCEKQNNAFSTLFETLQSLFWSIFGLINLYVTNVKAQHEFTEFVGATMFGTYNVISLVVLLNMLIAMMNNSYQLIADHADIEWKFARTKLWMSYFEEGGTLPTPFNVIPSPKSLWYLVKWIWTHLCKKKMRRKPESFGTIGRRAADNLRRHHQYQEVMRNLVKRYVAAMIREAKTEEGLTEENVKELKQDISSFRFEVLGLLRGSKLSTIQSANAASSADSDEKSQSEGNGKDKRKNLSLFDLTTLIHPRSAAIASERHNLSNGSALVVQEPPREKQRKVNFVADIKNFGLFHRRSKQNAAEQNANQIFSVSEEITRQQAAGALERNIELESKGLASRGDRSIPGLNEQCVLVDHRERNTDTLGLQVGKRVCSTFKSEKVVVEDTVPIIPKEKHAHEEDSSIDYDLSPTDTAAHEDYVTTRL

cells = assay type: functional
[12] = Trypanosoma cruzi growth suppression in host cells – NIH3T3 host cells, beta-gal luminescence, confirmation (AID 2044); assay type: functional, cell-based;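 further: intracellular parasites grown in NIH/3T3 mouse fibroblasts as host cells; luminescent beta-galactosidase reporter signal from transgenic T. cruzi replicating inside host cells; inhibitors lower the luminescence signal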
[13] = NIH3T3 cell viability loss – ATP luminescence, mouse fibroblasts, counter-screen, dose response (AID 2010); assay type: functional, cell-based;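 further: cells exposed to compound for about 90 hours before reading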
[14] = molecular target: T6, Ubiquitin-conjugating enzyme E2 N (Homo sapiens, UniProt P61088); assay type: functional;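 further: Dose-response confirmation in a TR-FRET assay detecting UBC13-driven polyubiquitin chain formation, inhibition measured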
T6 sequence (P61088 whole entry): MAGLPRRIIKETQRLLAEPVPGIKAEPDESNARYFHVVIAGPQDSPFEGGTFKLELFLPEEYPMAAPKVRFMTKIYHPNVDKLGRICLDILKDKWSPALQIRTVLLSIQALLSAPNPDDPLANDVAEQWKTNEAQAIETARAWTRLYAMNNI

[15] = Luminescence Cell-Based Dose Retest to Confirm Inhibitors of Cancer Stem Cells. [Related pubchem assays (depositor defined):AID2717, AID2721]; assay type: functional; settings: Homo sapiens

## CC(C)(C)NC(=O)[C@@H]1C[C@@H]2CCCC[C@@H]2CN1C[C@@H](O)[C@H](Cc1ccccc1)NC(=O)[C@H](CC(N)=O)NC(=O)c1ccc2ccccc2n1
[1]
  CC50: > 40 µM (active)

## C=CCn1c(SCC(=O)c2[nH]c(C)c(C(=O)OCC)c2C)nc2scc(-c3ccc(OC)cc3)c2c1=O
[2]
  EC50: 1.41 µM (active)
[3]
  EC50: 1.49 µM (active)
Vero
  CC50: 6.78 µM (active)

## CN(CCNC(=O)c1cc2c(=O)n(C)c3ccccc3c2n1C)Cc1ccccc1
[2]
  EC50: 23 µM (active)
[3]
  EC50: 31.5 µM (active)

## O=C(Cc1ccccc1)NCC(=O)OCC(=O)c1ccc([N+](=O)[O-])cc1
[4]
  IC50: > 80 µM (inactive)

## COc1ccc(OC)c(Nc2nc(-c3sc(C)nc3C)cs2)c1
[5]
  CC50: 20.4 µM (active)
[1]
  CC50: > 40 µM (active)

## CNC(=O)C1(C)C=CC2(CCCCC2)N1C(=O)OC (centres undefined)
Cytochrome P450 3A4
  AC50: 25.1 µM (inconclusive)

## CC1CCCCN1CC(=O)Nc1ccc(N2CCCCCC2)cc1 (centres undefined)
[6]
  AC50: 17.4 µM (active)
[7]
  IC50: 101 µM (active)

## CCOC(=O)c1c(NC(=S)NC(=O)/C=C/c2cccs2)sc(C)c1C
[2]
  EC50: 21.4 µM (active)
[3]
  EC50: 21.2 µM (active)

## CC1=CC(=O)NP(=O)(Oc2ccc3ccccc3c2)N1 (centres undefined)
[7]
  IC50: 80.7 µM (active)
[8]
  IC50: 31.2 µM (active)

## CCC1=C2CC[C@H]3C(=O)NC(=O)[C@H]3[C@H]2[C@@]2(C)C(=O)N(CC3CC3)C(=O)N2C1=O
Cytochrome P450 3A4
  AC50: 31.6 µM (inconclusive)

## CCCN1CCc2cc(O)cc3c2[C@H]1Cc1ccc(O)c(O)c1-3
[9]
  EC50: > 300 µM (inconclusive)
Large T antigen
  IC50: 24 µM (active)
[10]
  EC50: > 300 µM (inconclusive)
[4]
  IC50: > 80 µM (inactive)

## CCCCCCc1ccc(N2C[C@H](C)[C@@H](CC(=O)NCc3ccccc3)C2=O)cc1
[1]
  CC50: > 40 µM (active)

## CC(C)(C)NCc1ccccc1OCc1cccs1
[11]
  EC50: 3.76 µM (active)

## CCN(CC)c1cccc(O)c1
Cytochrome P450 3A4
  AC50: 31.6 µM (inconclusive)

## COc1cccc(-c2cnc(NCc3cc(Cl)ccc3O)n2C)c1
[1]
  CC50: > 40 µM (active)

## Cc1nc2ccc(NC(=O)c3ccc([N+](=O)[O-])cc3[N+](=O)[O-])cc2s1
cells
  IC50: 1.85 µM (active)
[12]
  EC50: 0.654 µM (active)
[13]
  EC50: > 60 µM (not active)

## CCN(CC)CCN(C(=O)c1ccc(C(=O)c2ccccc2)cc1)c1nc2c(OC)cccc2s1
[6]
  AC50: 17.2 µM (active)

## CCc1ccccc1N=C(S)N(CCCN(C)C)Cc1cc2cc3c(cc2nc1O)OCO3
[11]
  EC50: 1.06 µM (active)

## COc1cc2c(cc1OC)C(c1ccccc1N)=NCC2
[6]
  AC50: 18.6 µM (active)

## COC(=O)CNC(=O)C1(CC(C)C)C=CCN1C(C)=O (centres undefined)
Cytochrome P450 3A4
  AC50: 25.1 µM (inconclusive)

## CCOc1ccc(OC(=O)c2ccc3c(=O)n4c(nc3c2)CCC4)cc1
cells
  IC50: 0.12 µM (active)

## CC1(C)OC2CC3C4CC(F)C5=CC(=O)C=C[C@@]5(C)[C@@]4(F)C(O)C[C@@]3(C)[C@]2(C(=O)CO)O1 (some centres undefined)
Cytochrome P450 3A4
  AC50: 39.8 µM (inconclusive)

## Cc1ccc(S(=O)(=O)Oc2ccc(/N=N/c3ccc(-c4ccc(/N=N/c5c(O)ccc6cc(S(=O)(=O)O)cc(S(=O)(=O)O)c56)c(C)c4)cc3C)cc2)cc1
Cytochrome P450 3A4
  AC50: 25.1 µM (inconclusive)

## CCOC(=O)N1CCN(C(=O)C(=O)Nc2sc3c(c2C(N)=O)CC(C)(C)OC3)CC1
[14]
  IC50: > 20 µM (inactive)

## CCOC(=O)CSc1nc2ccccc2c(=O)n1CC1CCCC1
[11]
  EC50: 6.68 µM (active)

## Cc1ccn2cc(CCNC(=O)c3ccc(Br)o3)nc2c1
[11]
  EC50: 7.5 µM (active)

## COc1ccc2[nH]c(SCc3nc(N)nc(Nc4ccccc4)n3)nc2c1
[14]
  IC50: > 20 µM (inactive)

## CC(=O)O[C@H]1[C@@H](O)[C@H](O)[C@H](Oc2c(O)c(C)c3c4c2[C@@H](C)CC[C@@H]4[C@@H](C)C[C@H]3C=C(C)C)O[C@H]1C
[15]
  AC50: 3.19 µM (active)
[14]
  IC50: > 20 µM (inactive)

## CNC(C)C(=O)NC(C(=O)N1CCCC1C(=O)Nc1ccc2[nH]ccc2c1)C(C)C (centres undefined)
[6]
  AC50: 7.54 µM (active)

## COc1ccccc1/C=C/C(=O)c1cccs1
Cytochrome P450 3A4
  AC50: 25.1 µM (inconclusive)

## COc1ccc(/N=c2\cc(-c3ccc(O)cc3)oc3ccccc23)cc1
[1]
  CC50: 32.9 µM (active)
